According to patent publication US4835156A, “Vasodilatory dihydrodibenzocycloheptyliden-ethyl piperazine derivatives and process for the preparation of these compounds” (Sociedad Espanola De Especialidades Terepeuticas, S.A., priority 1983, dated 1989):

Tests used:
Rat hind-quarters = test: Vasodilatory activity, isolated rat hind-quarters (antagonism of vasoconstriction by hyperkalaemic Tyrode solution); conditions: crosses relative to standard drugs cinnarizine and flunarizine;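 note: four crosses equal an effect comparable to the standard drug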
Description: (§1) The significance of the symbols is as follows:
In order to test the vasodilatory activity, the first trial employs the technique of the isolated rat hind-quarters (Table 2), which involves antagonizing the vasoconstrictive effect of perfusion of hyperkalaemic Tyrode solution, according to the method of F. N. Fastier and F. H. Smirk (J. Pharm. Exp. Therap. 89, […] (1947)), and then calculating for the products which show the greatest activity, the ED30, that is the dose which produces a 30% vasodilatory activity with respect to the basic vasoconstriction.

[1] = Toxicity, indicative LD50, intraperitoneal; conditions: mouse, in vivo, ip, Swiss mice, 7 days post-administration
Protocol: Table 4 sets forth the results of the indicative LD50 for the most representative of the compounds according to the present invention.
The compounds are administered by the intraperitoneal route to Swiss mice, after which the toxic effects are observed, and the mortality rate and the LD50 7 days post-administration are calculated.

[2] = test system: Rabbit cerebral territory; test: Vasodilation in perfused rabbit cerebral territory (variation in perfusion pressure); type: in vivo; conditions: for Vasodilatory Index: % vasodilation multiplied by duration of action; for Vasodilatory Activity (Rabbit cerebral territory) Evaluation: crosses relative to standard cinnarizine;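 for Vasodilatory Activity (Rabbit cerebral territory) Evaluation: four crosses equal an effect comparable to the standard drug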
Protocol: as §1
In a further trial, the vasodilatory activity is evaluated by the technique of vasodilation in perfused rabbit cerebral territory as described by P. Vaupel and H. Hutten (Arzneim. Forsch./Drug Res. 30(I), 598-602 (1980)), calculating the variation in perfusion pressure after treatment (Table 3).
Table 3 employs the same conventional signs based on crosses, with the same relative significance as in Table 2.

Fc1ccc(C(c2ccc(F)cc2)N2CCN(C/C=C/c3ccccc3)CC2)cc1 [Flunarizine, reference compound]
Vasodilatory Activity (Rat hind-quarters) Evaluation (Rat hind-quarters): ++++

C(CN1CCN(Cc2ccccc2)CC1)=C1c2ccccc2CCc2ccccc21 [WAS-4206, N-benzyl-N'-2-(10,11-dihydrodibenzo-(a,d)-cyclohept-5-yliden)-ethyl piperazine]
LD50 at 168 h [1]: 880 mg/kg | Vasodilatory Activity (Rat hind-quarters) Evaluation (Rat hind-quarters): ++++ | Vasodilatory Index [2]: 285.3 mm^2 | Vasodilatory Activity (Rabbit cerebral territory) Evaluation [2]: ++

C(=Cc1ccccc1)CN1CCN(CC=C2c3ccccc3CCc3ccccc32)CC1 [WAS-4207]
LD50 at 168 h [1]: 925 mg/kg | Vasodilatory Activity (Rat hind-quarters) Evaluation (Rat hind-quarters): ++++ | Vasodilatory Index [2]: 16.2 mm^2 | Vasodilatory Activity (Rabbit cerebral territory) Evaluation [2]: 0

C(CN1CCN(Cc2ccncc2)CC1)=C1c2ccccc2CCc2ccccc21 [WAS-4220]
LD50 at 168 h [1]: 185 mg/kg | Vasodilatory Activity (Rat hind-quarters) Evaluation (Rat hind-quarters): 0 | Vasodilatory Index [2]: 1159.2 mm^2 | Vasodilatory Activity (Rabbit cerebral territory) Evaluation [2]: ++++

C(CN1CCN(Cc2ccco2)CC1)=C1c2ccccc2CCc2ccccc21 [WAS-4221]
LD50 at 168 h [1]: 185 mg/kg | Vasodilatory Activity (Rat hind-quarters) Evaluation (Rat hind-quarters): 0 | Vasodilatory Index [2]: 321.4 mm^2 | Vasodilatory Activity (Rabbit cerebral territory) Evaluation [2]: +++

O=C(CN1CCN(CC=C2c3ccccc3CCc3ccccc32)CC1)N1CCOCC1 [WAS-4222]
LD50 at 168 h [1]: 185 mg/kg | Vasodilatory Activity (Rat hind-quarters) Evaluation (Rat hind-quarters): + | Vasodilatory Index [2]: 454.6 mm^2 | Vasodilatory Activity (Rabbit cerebral territory) Evaluation [2]: ++++

O=C(CN1CCN(CC=C2c3ccccc3CCc3ccccc32)CC1)N1CCCCC1 [WAS-4223]
LD50 at 168 h [1]: 185 mg/kg | Vasodilatory Activity (Rat hind-quarters) Evaluation (Rat hind-quarters): 0 | Vasodilatory Index [2]: 1133.6 mm^2 | Vasodilatory Activity (Rabbit cerebral territory) Evaluation [2]: ++++

O=C(CN1CCN(CC=C2c3ccccc3CCc3ccccc32)CC1)N1CCCC1 [WAS-4224]
LD50 at 168 h [1]: 385 mg/kg | Vasodilatory Activity (Rat hind-quarters) Evaluation (Rat hind-quarters): 0 | Vasodilatory Index [2]: 342.0 mm^2 | Vasodilatory Activity (Rabbit cerebral territory) Evaluation [2]: +++

C=CCN1CCN(CC=C2c3ccccc3CCc3ccccc32)CC1 [WAS-4225]
LD50 at 168 h [1]: 175 mg/kg | Vasodilatory Activity (Rat hind-quarters) Evaluation (Rat hind-quarters): ++++ | Vasodilatory Index [2]: 0 mm^2 | Vasodilatory Activity (Rabbit cerebral territory) Evaluation [2]: 0

C(CN1CCN(Cc2cccs2)CC1)=C1c2ccccc2CCc2ccccc21 [WAS-4226, N-2-(10,11-dihydrodibenzo-(a,d)-cyclohept-5-yliden)-ethyl-N'-(2-thenyl)-piperazine]
LD50 at 168 h [1]: 385 mg/kg | Vasodilatory Activity (Rat hind-quarters) Evaluation (Rat hind-quarters): 0 | Vasodilatory Index [2]: 74.0 mm^2 | Vasodilatory Activity (Rabbit cerebral territory) Evaluation [2]: 0

C(CN1CCN(Cc2cccnc2)CC1)=C1c2ccccc2CCc2ccccc21 [WAS-4227]
LD50 at 168 h [1]: 175 mg/kg | Vasodilatory Activity (Rat hind-quarters) Evaluation (Rat hind-quarters): + | Vasodilatory Index [2]: 253.7 mm^2 | Vasodilatory Activity (Rabbit cerebral territory) Evaluation [2]: ++

OCCN1CCN(CC=C2c3ccccc3CCc3ccccc32)CC1 [WAS-4229]
LD50 at 168 h [1]: 115 mg/kg | Vasodilatory Activity (Rat hind-quarters) Evaluation (Rat hind-quarters): 0 | Vasodilatory Index [2]: 55.6 mm^2 | Vasodilatory Activity (Rabbit cerebral territory) Evaluation [2]: 0

CCOC(=O)CN1CCN(CC=C2c3ccccc3CCc3ccccc32)CC1 [WAS-4231]
LD50 at 168 h [1]: 175 mg/kg | Vasodilatory Activity (Rat hind-quarters) Evaluation (Rat hind-quarters): ++ | Vasodilatory Index [2]: 0 mm^2 | Vasodilatory Activity (Rabbit cerebral territory) Evaluation [2]: 0

C(CN1CCN(Cc2ccccn2)CC1)=C1c2ccccc2CCc2ccccc21 [WAS-4232]
LD50 at 168 h [1]: 115 mg/kg | Vasodilatory Activity (Rat hind-quarters) Evaluation (Rat hind-quarters): ++ | Vasodilatory Index [2]: 46.8 mm^2 | Vasodilatory Activity (Rabbit cerebral territory) Evaluation [2]: 0

O=C(O)CN1CCN(CC=C2c3ccccc3CCc3ccccc32)CC1 [WAS-4233]
LD50 at 168 h [1]: 900 mg/kg | Vasodilatory Activity (Rat hind-quarters) Evaluation (Rat hind-quarters): 0 | Vasodilatory Index [2]: 0 mm^2 | Vasodilatory Activity (Rabbit cerebral territory) Evaluation [2]: 0

C(CN1CCN(Cc2ccc3c(c2)OCO3)CC1)=C1c2ccccc2CCc2ccccc21 [WAS-4234]
LD50 at 168 h [1]: 600 mg/kg | Vasodilatory Activity (Rat hind-quarters) Evaluation (Rat hind-quarters): 0 | Vasodilatory Index [2]: 0 mm^2 | Vasodilatory Activity (Rabbit cerebral territory) Evaluation [2]: 0

COC(=O)C=CCN1CCN(CC=C2c3ccccc3CCc3ccccc32)CC1 [WAS-4237]
LD50 at 168 h [1]: 3000 mg/kg | Vasodilatory Activity (Rat hind-quarters) Evaluation (Rat hind-quarters): ++++ | Vasodilatory Index [2]: 19.6 mm^2 | Vasodilatory Activity (Rabbit cerebral territory) Evaluation [2]: 0

O=C(CN1CCN(CC=C2c3ccccc3CCc3ccccc32)CC1)NC12CC3CC(CC(C3)C1)C2 [WAS-4239]
LD50 at 168 h [1]: 340 mg/kg | Vasodilatory Activity (Rat hind-quarters) Evaluation (Rat hind-quarters): ++ | Vasodilatory Index [2]: 0 mm^2 | Vasodilatory Activity (Rabbit cerebral territory) Evaluation [2]: 0

O=C(CN1CCN(CC=C2c3ccccc3CCc3ccccc32)CC1)NC(=O)NCN1CCOCC1 [WAS-4601]
LD50 at 168 h [1]: 125 mg/kg | Vasodilatory Activity (Rat hind-quarters) Evaluation (Rat hind-quarters): ++++ | Vasodilatory Index [2]: 180.8 mm^2 | Vasodilatory Activity (Rabbit cerebral territory) Evaluation [2]: +

O=C(CN1CCN(CC=C2c3ccccc3CCc3ccccc32)CC1)c1ccccc1 [WAS-4602]
LD50 at 168 h [1]: 200 mg/kg | Vasodilatory Activity (Rat hind-quarters) Evaluation (Rat hind-quarters): 0 | Vasodilatory Index [2]: 378.3 mm^2 | Vasodilatory Activity (Rabbit cerebral territory) Evaluation [2]: +++

COC(=O)c1cc(CN2CCN(CC=C3c4ccccc4CCc4ccccc43)CC2)ccc1O [WAS-4604]
LD50 at 168 h [1]: 900 mg/kg | Vasodilatory Activity (Rat hind-quarters) Evaluation (Rat hind-quarters): + | Vasodilatory Index [2]: 20.0 mm^2 | Vasodilatory Activity (Rabbit cerebral territory) Evaluation [2]: 0

O=C(C=CCN1CCN(CC=C2c3ccccc3CCc3ccccc32)CC1)c1ccccc1 [WAS-4605]
LD50 at 168 h [1]: 115 mg/kg | Vasodilatory Activity (Rat hind-quarters) Evaluation (Rat hind-quarters): ++++ | Vasodilatory Index [2]: 420.9 mm^2 | Vasodilatory Activity (Rabbit cerebral territory) Evaluation [2]: ++++
